Reference: ChEMBL document CHEMBL1201862, “PubChem BioAssay data set” (2004)
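Briefly, cells in 96-well plates were exposed to five compound concentrations for 48 h, and endpoints were estimated by linear interpolation. Here, GI50 denotes the concentration required for 50% inhibition of growth.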 Active and inactive are the calls of the source. Rule as the data show it: active = GI50 up to about 1.1 µM and inactive = higher.

What was measured:
Experiment in all cases: NCI tumour cell line growth inhibition, 48 h
A498 = test system: A498
SK-MEL-2 = test system: SK-MEL-2
SF-539 = test system: SF-539
MCF7 = test system: MCF7
RPMI-8226 = test system: RPMI-8226
SF-295 = test system: SF-295
HOP-62 = test system: HOP-62
SK-OV-3 = test system: SK-OV-3
SK-MEL-5 = test system: SK-MEL-5
OVCAR-3 = test system: OVCAR-3
COLO 205 = test system: COLO 205
HT-29 = test system: HT-29
MDA-N = test system: MDA-N
T47D = test system: T47D
CAKI-1 = test system: CAKI-1
BT-549 = test system: BT-549
K562 = test system: K562
HCC 2998 = test system: HCC 2998
A549 = test system: A549
786-0 = test system: 786-0
NCI-H522 = test system: NCI-H522
OVCAR-4 = test system: OVCAR-4
UACC-257 = test system: UACC-257
UO-31 = test system: UO-31
UACC-62 = test system: UACC-62
NCI/ADR-RES = test system: NCI/ADR-RES
NCI-H23 = test system: NCI-H23
SN12C = test system: SN12C
PC-3 = test system: PC-3
U-251 = test system: U-251
Hs-578T = test system: Hs-578T
SW-620 = test system: SW-620
SR = test system: SR
OVCAR-5 = test system: OVCAR-5
SNB-19 = test system: SNB-19
SK-MEL-28 = test system: SK-MEL-28
TK-10 = test system: TK-10
KM12 = test system: KM12
LOX IMVI = test system: LOX IMVI
HL-60 = test system: HL-60
OVCAR-8 = test system: OVCAR-8
DU-145 = test system: DU-145
HCT-15 = test system: HCT-15
IGROV-1 = test system: IGROV-1
SF-268 = test system: SF-268
HOP-92 = test system: HOP-92
MOLT-4 = test system: MOLT-4
NCI-H460 = test system: NCI-H460
MDA-MB-435 = test system: MDA-MB-435
HCT-116 = test system: HCT-116
ACHN = test system: ACHN
RXF 393 = test system: RXF 393
SNB-75 = test system: SNB-75
CCRF-CEM = test system: CCRF-CEM
EKVX = test system: EKVX
M14 = test system: M14
NCI-H226 = test system: NCI-H226
MDA-MB-231 = test system: MDA-MB-231
Malme-3M = test system: Malme-3M

Cc1cc2c([N+](=O)[O-])cc3c(c2o1)C(=O)C=CC3=O
GI50 (A498): 15.5 µM (inactive)
GI50 (SK-MEL-2): 19.1 µM (inactive)
GI50 (SF-539): 15.1 µM (inactive)
GI50 (MCF7): 4.18 µM (inactive)
GI50 (RPMI-8226): 0.586 µM (active)
GI50 (SF-295): 8.13 µM (inactive)
GI50 (HOP-62): 19 µM (inactive)
GI50 (SK-OV-3): 29.5 µM (inactive)
GI50 (SK-MEL-5): 14.2 µM (inactive)
GI50 (OVCAR-3): 5.64 µM (inactive)
GI50 (COLO 205): 2.3 µM (inactive)
GI50 (HT-29): 2.12 µM (inactive)
GI50 (MDA-N): 14.5 µM (inactive)
GI50 (T47D): 3.12 µM (inactive)
GI50 (CAKI-1): 1.06 µM (active)
GI50 (BT-549): 16.6 µM (inactive)
GI50 (K562): 1.79 µM (inactive)
GI50 (HCC 2998): 30.5 µM (inactive)
GI50 (A549): 18.3 µM (inactive)
GI50 (786-0): 2.01 µM (inactive)
GI50 (NCI-H522): 1.52 µM (inactive)
GI50 (OVCAR-4): 16.1 µM (inactive)
GI50 (UACC-257): 2.62 µM (inactive)
GI50 (UO-31): 1.67 µM (inactive)
GI50 (UACC-62): 15.2 µM (inactive)
GI50 (NCI/ADR-RES): 22.9 µM (inactive)
GI50 (NCI-H23): 17.7 µM (inactive)
GI50 (SN12C): 6.19 µM (inactive)
GI50 (PC-3): 16.4 µM (inactive)
GI50 (U-251): 17.7 µM (inactive)
GI50 (Hs-578T): 18.5 µM (inactive)
GI50 (SW-620): 2.43 µM (inactive)
GI50 (SR): 5.41 µM (inactive)
GI50 (OVCAR-5): 20 µM (inactive)
GI50 (SNB-19): 15.5 µM (inactive)
GI50 (SK-MEL-28): 8.85 µM (inactive)
GI50 (TK-10): 2.38 µM (inactive)
GI50 (KM12): 16.6 µM (inactive)
GI50 (LOX IMVI): 6.76 µM (inactive)
GI50 (HL-60): 2.2 µM (inactive)
GI50 (OVCAR-8): 19.6 µM (inactive)
GI50 (DU-145): 7.93 µM (inactive)
GI50 (HCT-15): 15 µM
GI50 (IGROV-1): 7.41 µM (inactive)
GI50 (SF-268): 12.4 µM (inactive)
GI50 (HOP-92): 1.72 µM (inactive)
GI50 (MOLT-4): 0.415 µM (active)
GI50 (NCI-H460): 18.5 µM (inactive)
GI50 (MDA-MB-435): 3.2 µM (inactive)
GI50 (HCT-116): 5.51 µM (inactive)
GI50 (ACHN): 1.89 µM (inactive)
GI50 (RXF 393): 1.89 µM (inactive)
GI50 (SNB-75): 25.6 µM (inactive)
GI50 (CCRF-CEM): 1.43 µM (inactive)
GI50 (EKVX): 3.37 µM (inactive)
GI50 (M14): 5.58 µM (inactive)
GI50 (NCI-H226): 28.6 µM (inactive)
GI50 (MDA-MB-231): 18.7 µM (inactive)

C/C(=N\NC(=S)NCCNC(=S)N/N=C(\C)c1ccccn1)c1ccccn1
GI50 (A498): 4.44 µM (inactive)
GI50 (SK-MEL-2): 1.82 µM (inactive)
GI50 (SF-539): 2.36 µM (inactive)
GI50 (MCF7): 4.39 µM (inactive)
GI50 (RPMI-8226): 1.7 µM (inactive)
GI50 (SF-295): 3.45 µM (inactive)
GI50 (HOP-62): 1.83 µM (inactive)
GI50 (SK-OV-3): 4.7 µM (inactive)
GI50 (SK-MEL-5): 1.74 µM (inactive)
GI50 (OVCAR-3): 2.74 µM (inactive)
GI50 (COLO 205): 2.09 µM (inactive)
GI50 (HT-29): 2.07 µM (inactive)
GI50 (MDA-N): 4.51 µM (inactive)
GI50 (T47D): 4.43 µM (inactive)
GI50 (CAKI-1): 3.42 µM (inactive)
GI50 (BT-549): 2.36 µM (inactive)
GI50 (K562): 3.17 µM (inactive)
GI50 (HCC 2998): 7.28 µM (inactive)
GI50 (A549): 3.21 µM (inactive)
GI50 (786-0): 1.26 µM (inactive)
GI50 (NCI-H522): 6.04 µM (inactive)
GI50 (OVCAR-4): 2.9 µM (inactive)
GI50 (UACC-257): 2.61 µM (inactive)
GI50 (Malme-3M): 2.54 µM (inactive)
GI50 (UO-31): 1.43 µM (inactive)
GI50 (UACC-62): 2.62 µM (inactive)
GI50 (NCI/ADR-RES): 1.92 µM (inactive)
GI50 (NCI-H23): 4.41 µM (inactive)
GI50 (SN12C): 1.94 µM (inactive)
GI50 (PC-3): 3.07 µM (inactive)
GI50 (U-251): 2.43 µM (inactive)
GI50 (Hs-578T): > 73.1 µM (inactive)
GI50 (SW-620): 5.04 µM (inactive)
GI50 (SR): 0.514 µM (active)
GI50 (OVCAR-5): 3.98 µM (inactive)
GI50 (SNB-19): 9.46 µM (inactive)
GI50 (SK-MEL-28): 4.75 µM (inactive)
GI50 (TK-10): 1.04 µM (active)
GI50 (KM12): 3.87 µM (inactive)
GI50 (LOX IMVI): 1.89 µM (inactive)
GI50 (HL-60): 0.789 µM (active)
GI50 (OVCAR-8): 1.56 µM (inactive)
GI50 (DU-145): 2.32 µM (inactive)
GI50 (HCT-15): 1.84 µM
GI50 (IGROV-1): 2.07 µM (inactive)
GI50 (SF-268): 1.9 µM (inactive)
GI50 (HOP-92): 3.91 µM (inactive)
GI50 (MOLT-4): 2.15 µM (inactive)
GI50 (NCI-H460): 1.61 µM (inactive)
GI50 (MDA-MB-435): 3.91 µM (inactive)
GI50 (HCT-116): 2.75 µM (inactive)
GI50 (ACHN): 1.26 µM (inactive)
GI50 (RXF 393): 3.16 µM (inactive)
GI50 (SNB-75): 1.73 µM (inactive)
GI50 (CCRF-CEM): 1.28 µM (inactive)
GI50 (EKVX): 4.83 µM (inactive)
GI50 (M14): 1.5 µM (inactive)
GI50 (MDA-MB-231): > 20.9 µM (inactive)
